Publication PMC3399817 (PLoS ONE, 2012)

How the values were obtained:
Assay in all cases: KINOMEscan
Format in all cases: binding
[1] = target: T1, EPHB6 (Homo sapiens, UniProt O15197); settings: EPHB6, 1 uM
T1 construct: purchased Ambit KINOMEscan (DiscoverX)
Method in brief: (§1)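 Substrate-binding inhibition measured with compound present at 1 μM, single concentration, to pick out affected kinases.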

[2] = target: T2, ERK8 (Homo sapiens, UniProt Q8TD08); settings: ERK8, 1 uM
T2 construct: purchased Ambit KINOMEscan (DiscoverX)
Method in brief: as §1

[3] = target: T3, CAMKK1 (Homo sapiens, UniProt Q8N5S9); settings: CAMKK1, 1 uM
T3 construct: purchased Ambit KINOMEscan (DiscoverX)
Method in brief: as §1

[4] = target: T4, CDK9 (Homo sapiens, UniProt P50750); settings: for % binding compared to no inhibitor control: CDK9, 1 uM
T4 construct: purchased Ambit KINOMEscan (DiscoverX)
Method in brief: as §1

[5] = target: T5, TXK (Homo sapiens, UniProt P42681); settings: 1 uM
T5 construct: purchased Ambit KINOMEscan (DiscoverX)
Method in brief: as §1

[6] = target: T6, MELK (Homo sapiens, UniProt Q14680); settings: 1 uM
T6 construct: purchased Ambit KINOMEscan (DiscoverX)
Method in brief: as §1

[7] = target: T7, MRCKB (Homo sapiens, UniProt Q9Y5S2); settings: 1 uM
T7 construct: purchased Ambit KINOMEscan (DiscoverX)
Method in brief: as §1

[8] = target: T8, PIK3CA(E545A) (Homo sapiens, UniProt P42336, E545A); settings: 1 uM
T8 construct: purchased Ambit KINOMEscan (DiscoverX)
Method in brief: as §1

[9] = target: T9, PIK3CD (Homo sapiens, UniProt O00329); settings: 1 uM
T9 construct: purchased Ambit KINOMEscan (DiscoverX)
Method in brief: as §1

[10] = target: T10, CAMK1D (Homo sapiens, UniProt Q8IU85); settings: 1 uM
T10 construct: purchased Ambit KINOMEscan (DiscoverX)
Method in brief: as §1

[11] = target: T11, HPK1 (Homo sapiens, UniProt Q92918); settings: HPK1, 1 uM
T11 construct: purchased Ambit KINOMEscan (DiscoverX)
Method in brief: as §1

[12] = target: T12, PFTK1 (Homo sapiens, UniProt O94921); settings: PFTK1, 1 uM
T12 construct: purchased Ambit KINOMEscan (DiscoverX)
Method in brief: as §1

[13] = target: T13, TSSK1B (Homo sapiens, UniProt Q9BXA7); settings: 1 uM
T13 construct: purchased Ambit KINOMEscan (DiscoverX)
Method in brief: as §1

[14] = target: T14, EGFR(G719S) (Homo sapiens, UniProt P00533, G719S); settings: 1 uM
T14 construct: purchased Ambit KINOMEscan (DiscoverX)
Method in brief: as §1

[15] = target: T15, LTK (Homo sapiens, UniProt P29376); settings: 1 uM
T15 construct: purchased Ambit KINOMEscan (DiscoverX)
Method in brief: as §1

[16] = target: T16, SLK (Homo sapiens, UniProt Q9H2G2); settings: 1 uM
T16 construct: purchased Ambit KINOMEscan (DiscoverX)
Method in brief: as §1

[17] = target: T17, PCTK2 (Homo sapiens, UniProt Q00537); settings: PCTK2, 1 uM
T17 construct: purchased Ambit KINOMEscan (DiscoverX)
Method in brief: as §1

[18] = target: T18, GRK4 (Homo sapiens, UniProt P32298); settings: GRK4, 1 uM
T18 construct: purchased Ambit KINOMEscan (DiscoverX)
Method in brief: as §1

[19] = target: T19, GRK7 (Homo sapiens, UniProt Q8WTQ7); settings: GRK7, 1 uM
T19 construct: purchased Ambit KINOMEscan (DiscoverX)
Method in brief: as §1

[20] = target: T20, CDK8 (Homo sapiens, UniProt P49336); settings: CDK8, 1 uM
T20 construct: purchased Ambit KINOMEscan (DiscoverX)
Method in brief: as §1

[21] = target: T21, DYRK1B (Homo sapiens, UniProt Q9Y463); settings: 1 uM
T21 construct: purchased Ambit KINOMEscan (DiscoverX)
Method in brief: as §1

[22] = target: T22, NEK2 (Homo sapiens, UniProt P51955); settings: NEK2, 1 uM
T22 construct: purchased Ambit KINOMEscan (DiscoverX)
Method in brief: as §1

[23] = target: T23, LCK (Homo sapiens, UniProt P06239); settings: 1 uM
T23 construct: purchased Ambit KINOMEscan (DiscoverX)
Method in brief: as §1

[24] = target: T24, TNK1 (Homo sapiens, UniProt Q13470); settings: TNK1, 1 uM
T24 construct: purchased Ambit KINOMEscan (DiscoverX)
Method in brief: as §1

[25] = target: T25, AKT1 (Homo sapiens, UniProt P31749); settings: AKT1, 1 uM
T25 construct: purchased Ambit KINOMEscan (DiscoverX)
Method in brief: as §1

[26] = target: T26, MAP4K2 (Homo sapiens, UniProt Q12851); settings: for % binding compared to no inhibitor control: MAP4K2, 1 uM
T26 construct: purchased Ambit KINOMEscan (DiscoverX)
T26 sequence (Q12851 1-820): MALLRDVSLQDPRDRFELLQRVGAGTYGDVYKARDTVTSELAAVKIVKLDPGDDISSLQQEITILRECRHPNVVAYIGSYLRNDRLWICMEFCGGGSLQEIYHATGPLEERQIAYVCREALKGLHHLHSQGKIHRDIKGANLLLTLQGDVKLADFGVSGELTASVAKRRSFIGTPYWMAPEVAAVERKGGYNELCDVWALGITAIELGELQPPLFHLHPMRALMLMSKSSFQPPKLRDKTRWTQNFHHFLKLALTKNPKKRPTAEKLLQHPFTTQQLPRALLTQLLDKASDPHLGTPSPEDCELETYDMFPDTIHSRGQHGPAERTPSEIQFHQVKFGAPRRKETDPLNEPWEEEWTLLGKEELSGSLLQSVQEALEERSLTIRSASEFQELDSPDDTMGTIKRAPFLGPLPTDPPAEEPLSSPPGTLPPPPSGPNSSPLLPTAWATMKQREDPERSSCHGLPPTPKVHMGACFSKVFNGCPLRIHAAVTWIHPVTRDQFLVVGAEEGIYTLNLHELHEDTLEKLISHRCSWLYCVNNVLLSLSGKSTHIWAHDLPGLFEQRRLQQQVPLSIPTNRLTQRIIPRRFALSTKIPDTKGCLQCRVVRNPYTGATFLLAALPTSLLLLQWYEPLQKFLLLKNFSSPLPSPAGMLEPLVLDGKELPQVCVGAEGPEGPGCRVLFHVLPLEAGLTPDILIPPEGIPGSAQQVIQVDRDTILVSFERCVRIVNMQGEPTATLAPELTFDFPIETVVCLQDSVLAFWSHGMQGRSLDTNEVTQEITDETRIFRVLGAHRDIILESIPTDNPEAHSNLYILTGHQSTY
Method in brief: as §1

[27] = target: T27, PIK3CB (Homo sapiens, UniProt P42338); settings: 1 uM
T27 construct: purchased Ambit KINOMEscan (DiscoverX)
Method in brief: as §1

[28] = target: T28, PAK2 (Homo sapiens, UniProt Q13177); settings: PAK2, 1 uM
T28 construct: purchased Ambit KINOMEscan (DiscoverX)
Method in brief: as §1

[29] = target: T29, BMPR1A (Homo sapiens, UniProt P36894); settings: 1 uM
T29 construct: purchased Ambit KINOMEscan (DiscoverX)
Method in brief: as §1

[30] = target: T30, BRAF(V600E) (Homo sapiens, UniProt P15056, V600E); settings: 1 uM
T30 construct: purchased Ambit KINOMEscan (DiscoverX)
Method in brief: as §1

T4 sequence (P50750 whole entry): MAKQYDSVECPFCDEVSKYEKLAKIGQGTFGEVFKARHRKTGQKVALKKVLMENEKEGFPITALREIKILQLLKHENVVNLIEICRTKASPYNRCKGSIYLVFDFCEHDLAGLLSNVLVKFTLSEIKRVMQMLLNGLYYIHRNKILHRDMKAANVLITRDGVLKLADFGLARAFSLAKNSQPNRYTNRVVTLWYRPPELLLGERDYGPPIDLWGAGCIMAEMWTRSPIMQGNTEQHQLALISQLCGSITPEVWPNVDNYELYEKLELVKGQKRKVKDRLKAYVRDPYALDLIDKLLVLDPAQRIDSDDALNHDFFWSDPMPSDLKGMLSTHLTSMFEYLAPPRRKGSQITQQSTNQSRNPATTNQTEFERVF
T23 sequence (P06239 whole entry): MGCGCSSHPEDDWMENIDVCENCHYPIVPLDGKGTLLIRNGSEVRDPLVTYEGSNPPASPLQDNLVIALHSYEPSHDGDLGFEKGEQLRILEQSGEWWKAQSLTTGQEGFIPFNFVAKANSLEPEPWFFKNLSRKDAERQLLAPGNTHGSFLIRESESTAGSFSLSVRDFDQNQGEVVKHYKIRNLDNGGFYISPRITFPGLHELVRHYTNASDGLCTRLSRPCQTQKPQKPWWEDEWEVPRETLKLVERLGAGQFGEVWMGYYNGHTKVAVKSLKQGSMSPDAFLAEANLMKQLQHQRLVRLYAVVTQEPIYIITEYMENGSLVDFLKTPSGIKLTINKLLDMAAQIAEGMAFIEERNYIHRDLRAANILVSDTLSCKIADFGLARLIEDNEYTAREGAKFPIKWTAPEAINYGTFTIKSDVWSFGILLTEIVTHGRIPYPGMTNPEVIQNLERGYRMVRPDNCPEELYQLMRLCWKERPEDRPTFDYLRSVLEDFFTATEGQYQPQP
T21 sequence (Q9Y463 whole entry): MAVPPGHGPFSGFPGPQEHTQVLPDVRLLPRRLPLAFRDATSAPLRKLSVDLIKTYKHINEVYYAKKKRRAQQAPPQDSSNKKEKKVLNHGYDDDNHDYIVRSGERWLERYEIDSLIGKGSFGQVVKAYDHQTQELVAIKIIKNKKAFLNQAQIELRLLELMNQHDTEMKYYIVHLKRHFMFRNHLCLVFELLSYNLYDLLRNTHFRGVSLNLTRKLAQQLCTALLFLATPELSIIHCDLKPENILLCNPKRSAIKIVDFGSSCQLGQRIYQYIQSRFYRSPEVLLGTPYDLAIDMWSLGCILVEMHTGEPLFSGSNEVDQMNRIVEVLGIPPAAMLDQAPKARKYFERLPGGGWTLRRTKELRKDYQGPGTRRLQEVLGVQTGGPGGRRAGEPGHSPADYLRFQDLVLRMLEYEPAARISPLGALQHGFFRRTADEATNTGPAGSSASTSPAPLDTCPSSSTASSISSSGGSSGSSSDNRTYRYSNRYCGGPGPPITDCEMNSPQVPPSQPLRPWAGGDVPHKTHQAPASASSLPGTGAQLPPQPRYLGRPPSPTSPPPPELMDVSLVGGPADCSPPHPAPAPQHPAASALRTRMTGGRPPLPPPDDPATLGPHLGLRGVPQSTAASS
T19 sequence (Q8WTQ7 whole entry): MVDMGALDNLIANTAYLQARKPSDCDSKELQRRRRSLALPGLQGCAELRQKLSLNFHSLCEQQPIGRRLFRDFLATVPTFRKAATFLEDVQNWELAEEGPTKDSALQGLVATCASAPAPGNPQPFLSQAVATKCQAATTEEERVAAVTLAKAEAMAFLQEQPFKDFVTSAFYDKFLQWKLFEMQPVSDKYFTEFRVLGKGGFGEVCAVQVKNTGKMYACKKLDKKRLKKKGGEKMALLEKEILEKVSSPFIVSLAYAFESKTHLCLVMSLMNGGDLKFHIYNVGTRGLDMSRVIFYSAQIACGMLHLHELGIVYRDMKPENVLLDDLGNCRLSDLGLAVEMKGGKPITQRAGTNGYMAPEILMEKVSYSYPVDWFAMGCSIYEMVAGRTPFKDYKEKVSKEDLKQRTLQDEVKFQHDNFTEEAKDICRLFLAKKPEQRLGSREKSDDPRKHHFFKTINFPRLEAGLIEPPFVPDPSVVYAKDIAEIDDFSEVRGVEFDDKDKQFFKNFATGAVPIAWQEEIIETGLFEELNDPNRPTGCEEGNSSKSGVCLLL
T8 sequence (P42336 whole entry E545A): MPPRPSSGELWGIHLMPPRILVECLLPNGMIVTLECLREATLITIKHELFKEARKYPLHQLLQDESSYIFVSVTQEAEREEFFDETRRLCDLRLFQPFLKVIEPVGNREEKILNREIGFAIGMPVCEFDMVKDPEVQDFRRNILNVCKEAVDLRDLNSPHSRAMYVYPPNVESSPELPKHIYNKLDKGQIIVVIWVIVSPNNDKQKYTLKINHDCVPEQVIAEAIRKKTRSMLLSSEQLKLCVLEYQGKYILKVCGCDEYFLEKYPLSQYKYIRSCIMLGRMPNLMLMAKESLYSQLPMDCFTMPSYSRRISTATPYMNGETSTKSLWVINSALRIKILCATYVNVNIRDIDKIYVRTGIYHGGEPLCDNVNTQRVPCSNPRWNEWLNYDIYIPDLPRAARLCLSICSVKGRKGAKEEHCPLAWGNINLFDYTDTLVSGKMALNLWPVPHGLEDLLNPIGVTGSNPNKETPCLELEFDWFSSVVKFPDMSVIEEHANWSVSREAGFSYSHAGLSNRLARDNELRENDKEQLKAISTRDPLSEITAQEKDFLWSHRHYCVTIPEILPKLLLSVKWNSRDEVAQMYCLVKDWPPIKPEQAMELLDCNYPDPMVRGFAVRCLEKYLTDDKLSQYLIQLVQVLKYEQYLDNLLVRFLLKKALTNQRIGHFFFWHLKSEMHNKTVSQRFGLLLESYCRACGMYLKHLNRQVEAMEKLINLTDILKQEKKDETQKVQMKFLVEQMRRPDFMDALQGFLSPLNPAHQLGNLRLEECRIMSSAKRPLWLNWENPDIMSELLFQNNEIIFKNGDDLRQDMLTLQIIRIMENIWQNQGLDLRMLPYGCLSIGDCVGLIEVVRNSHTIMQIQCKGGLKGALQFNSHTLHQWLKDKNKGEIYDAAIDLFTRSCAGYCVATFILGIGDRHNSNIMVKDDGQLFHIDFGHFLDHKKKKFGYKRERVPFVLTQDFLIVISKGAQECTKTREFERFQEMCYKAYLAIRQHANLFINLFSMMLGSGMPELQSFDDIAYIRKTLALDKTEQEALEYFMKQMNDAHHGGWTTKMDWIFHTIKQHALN
T5 sequence (P42681 whole entry): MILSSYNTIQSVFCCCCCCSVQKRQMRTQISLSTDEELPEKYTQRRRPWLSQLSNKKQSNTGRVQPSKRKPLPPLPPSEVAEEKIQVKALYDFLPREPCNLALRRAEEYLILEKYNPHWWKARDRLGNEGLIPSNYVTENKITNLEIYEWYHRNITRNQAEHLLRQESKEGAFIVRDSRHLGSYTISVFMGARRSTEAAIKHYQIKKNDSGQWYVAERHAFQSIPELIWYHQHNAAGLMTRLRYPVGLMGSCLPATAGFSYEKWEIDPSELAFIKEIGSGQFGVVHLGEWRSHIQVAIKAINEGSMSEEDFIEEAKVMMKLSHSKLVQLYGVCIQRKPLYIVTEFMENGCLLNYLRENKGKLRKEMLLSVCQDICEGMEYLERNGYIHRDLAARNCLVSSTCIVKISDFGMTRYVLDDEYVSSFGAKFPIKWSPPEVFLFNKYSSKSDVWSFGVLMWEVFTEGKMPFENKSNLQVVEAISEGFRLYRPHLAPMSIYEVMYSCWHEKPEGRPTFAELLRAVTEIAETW
T13 sequence (Q9BXA7 whole entry): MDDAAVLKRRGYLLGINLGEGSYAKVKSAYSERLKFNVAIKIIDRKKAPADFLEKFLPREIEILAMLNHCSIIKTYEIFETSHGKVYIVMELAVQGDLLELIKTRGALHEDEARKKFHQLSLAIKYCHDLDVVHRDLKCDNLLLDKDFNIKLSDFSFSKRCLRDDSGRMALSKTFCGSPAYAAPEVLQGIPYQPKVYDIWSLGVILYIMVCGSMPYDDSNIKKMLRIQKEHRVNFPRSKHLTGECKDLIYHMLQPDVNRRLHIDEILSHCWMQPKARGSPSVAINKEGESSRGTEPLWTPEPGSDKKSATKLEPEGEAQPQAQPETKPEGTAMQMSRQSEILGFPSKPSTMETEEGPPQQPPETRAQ
T20 sequence (P49336 whole entry): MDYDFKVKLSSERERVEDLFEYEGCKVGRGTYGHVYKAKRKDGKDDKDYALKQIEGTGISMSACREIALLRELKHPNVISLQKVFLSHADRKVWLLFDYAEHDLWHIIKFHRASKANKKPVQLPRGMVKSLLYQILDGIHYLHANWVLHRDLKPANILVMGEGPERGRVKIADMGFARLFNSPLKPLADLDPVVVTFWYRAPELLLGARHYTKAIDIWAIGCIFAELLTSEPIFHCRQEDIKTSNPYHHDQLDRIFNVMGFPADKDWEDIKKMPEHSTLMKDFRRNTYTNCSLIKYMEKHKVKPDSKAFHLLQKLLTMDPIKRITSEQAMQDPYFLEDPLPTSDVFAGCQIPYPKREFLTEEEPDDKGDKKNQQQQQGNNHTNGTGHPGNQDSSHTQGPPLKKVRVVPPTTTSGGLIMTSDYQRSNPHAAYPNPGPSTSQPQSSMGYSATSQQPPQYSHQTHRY
T3 sequence (Q8N5S9 whole entry): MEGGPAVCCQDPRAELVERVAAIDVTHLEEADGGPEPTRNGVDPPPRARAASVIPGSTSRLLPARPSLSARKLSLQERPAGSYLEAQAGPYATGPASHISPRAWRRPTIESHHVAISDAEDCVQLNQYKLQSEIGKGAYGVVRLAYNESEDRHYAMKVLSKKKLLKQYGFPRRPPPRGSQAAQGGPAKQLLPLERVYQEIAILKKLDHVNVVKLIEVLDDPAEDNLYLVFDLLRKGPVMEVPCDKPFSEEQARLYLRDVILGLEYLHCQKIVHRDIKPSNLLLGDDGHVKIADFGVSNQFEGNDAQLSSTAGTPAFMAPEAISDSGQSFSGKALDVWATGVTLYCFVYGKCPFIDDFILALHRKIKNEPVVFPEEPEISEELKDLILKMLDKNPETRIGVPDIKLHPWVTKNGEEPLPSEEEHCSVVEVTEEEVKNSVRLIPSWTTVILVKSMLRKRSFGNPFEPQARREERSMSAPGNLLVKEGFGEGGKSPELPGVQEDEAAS

COc1ccc(-c2cc3nccn3c(Nc3ncccc3C(N)=O)n2)cc1OC.Cl.Cl [BAY61-3606, 2-[7-(3,4-dimethoxyphenyl)-imidazo [1,2-c]pyrimidin-5-ylamino] nicotinamide dihydrochloride, reference compound]
% binding compared to no inhibitor control [1]: 17%
% binding compared to no inhibitor control [2]: 92%
% binding compared to no inhibitor control [3]: 48%
% binding compared to no inhibitor control [4]: 56%
% inhibition ATP binding ([4]; CDK9, KINOMEscan, 1 μM): 44%
% binding compared to no inhibitor control [5]: 95%
% binding compared to no inhibitor control [6]: 87%
% binding compared to no inhibitor control [7]: 99%
% binding compared to no inhibitor control [8]: 90%
% binding compared to no inhibitor control [9]: 81%
% binding compared to no inhibitor control [10]: 72%
% binding compared to no inhibitor control [11]: 43%
% binding compared to no inhibitor control [12]: 100%
% binding compared to no inhibitor control [13]: 96%
% binding compared to no inhibitor control [14]: 71%
% binding compared to no inhibitor control [15]: 46%
% binding compared to no inhibitor control [16]: 58%
% binding compared to no inhibitor control [17]: 100%
% binding compared to no inhibitor control [18]: 73%
% binding compared to no inhibitor control [19]: 59%
% binding compared to no inhibitor control [20]: 62%
% binding compared to no inhibitor control [21]: 81%
% binding compared to no inhibitor control [22]: 77%
% binding compared to no inhibitor control [23]: 87%
% binding compared to no inhibitor control [24]: 82%
% binding compared to no inhibitor control [25]: 93%
% binding compared to no inhibitor control [26]: 6%
% inhibition ATP binding ([26]; MAP4K2, KINOMEscan, 1 μM): 94%
% binding compared to no inhibitor control [27]: 92%
% binding compared to no inhibitor control [28]: 80%
% binding compared to no inhibitor control [29]: 79%
% binding compared to no inhibitor control [30]: 84%

COc1ccccc1Nc1nc(-c2ccc(OC)c(OC)c2)cc2nccn12 [BAY derivative 6]
% binding compared to no inhibitor control [1]: 56%
% binding compared to no inhibitor control [2]: 98%
% binding compared to no inhibitor control [3]: 100%
% binding compared to no inhibitor control [4]: 100%
% binding compared to no inhibitor control [5]: 78%
% binding compared to no inhibitor control [6]: 91%
% binding compared to no inhibitor control [7]: 100%
% binding compared to no inhibitor control [8]: 100%
% binding compared to no inhibitor control [9]: 100%
% binding compared to no inhibitor control [10]: 100%
% binding compared to no inhibitor control [11]: 100%
% binding compared to no inhibitor control [12]: 100%
% binding compared to no inhibitor control [13]: 100%
% binding compared to no inhibitor control [14]: 100%
% binding compared to no inhibitor control [15]: 30%
% binding compared to no inhibitor control [16]: 28%
% binding compared to no inhibitor control [17]: 100%
% binding compared to no inhibitor control [18]: 100%
% binding compared to no inhibitor control [19]: 100%
% binding compared to no inhibitor control [20]: 100%
% binding compared to no inhibitor control [21]: 57%
% binding compared to no inhibitor control [22]: 88%
% binding compared to no inhibitor control [23]: 41%
% binding compared to no inhibitor control [24]: 56%
% binding compared to no inhibitor control [25]: 91%
% binding compared to no inhibitor control [26]: 100%
% binding compared to no inhibitor control [27]: 100%
% binding compared to no inhibitor control [28]: 76%
% binding compared to no inhibitor control [29]: 100%
% binding compared to no inhibitor control [30]: 100%
